Consider 10 compounds from patent US12123876B2, “Antibody binding to HEG1 and use of the antibody for detection and treatment of mesothelioma” (Kanagawa Prefectural Hospital Organization, priority 2016, dated 2024).

In data set [1] the test system is SKM9-2 antibody. The data set is described as follows: Western blot reactivity of human HEG1 fragments expressed in ACC-MESO-1 with SKM9-2 antibody. The class given is binding, mouse. Particulars: for Binding to SKM9-2 antibody (positive/negative): Western blot of cell lysate. Here is the method: In this Example, the mesothelioma cell line ACC-MESO-1 was allowed to express a human HEG1 fragment with the endogenous HEG1 of ACC-MESO-1 knocked down, and the reactivity with the SKM9-2 antibody was examined. Subsequently, the reactivity with the antibody was tested for the epitope region through alanine scanning, and key amino acids for binding to the antibody were determined.
Gene transfer was performed with HEG1 siRNA (H9106) (SEQ ID NOs: 40, 41) and human HEG1 for the mesothelioma cell line ACC-MESO-1, and the reactivity of the SKM9-2 was examined through Western blot analysis. A full length protein (HEG1 full length) or a fragment (HEG1 3 kb, HEG1 2 kb, or HEG1 1 kb) of the human HEG1 was used. The full length human HEG1 protein, a protein having the amino acid sequence set forth in SEQ ID NO: 35, was obtained through inserting a base sequence set forth in SEQ ID NO: 34 into pFLAG-CMV1 (Sigma-Aldrich Japan K.K.) to obtain a plasmid, transforming the plasmid, and allowing the mesothelioma cell line to express the plasmid. Fragment HEG1 3 kb was obtained through inserting a fragment corresponding to a sequence from position 285, leucine, to position 1387, phenylalanine, of SEQ ID NO: 35 into pFLAG-CMV1 (Sigma-Aldrich Japan K.K.) in an in-frame manner, and allowing the mesothelioma cell line to express the resultant. HEG1 2 kb and HEG1 1 kb were obtained through allowing the mesothelioma cell line to express products similarly obtained from a fragment corresponding to a sequence from position 677, leucine, to position 1387, phenylalanine, of SEQ ID NO: 35 and a fragment corresponding to a sequence from position 992, valine, to position 1387, phenylalanine, of SEQ ID NO: 35, respectively. Each cell lysate was analyzed through Western blot with the SKM9-2 antibody.
Further, the region in exon 7 of HEG1 was analyzed in detail. […]
In general terms: Immunoblotting shows a protein as a band on a membrane.

Data set [2] deals with recombinant human intelectin-1 (Homo sapiens, UniProt Q8WWA0, V109D). Nature of the data set: Biacore inhibition of intelectin binding to diol structure. Particulars: inhibition of intelectin (0.5 μg/mL) binding. Here is the method: The binding between intelectin and the diol SEPHAROSE® (crosslinked, beaded-form of agarose) beads was inhibited in the presence of another compound with diol structure. An experiment was conducted in which binding of recombinant human intelectin-1 to a sensor chip including 3-Amino-1-propanediol fixed thereto via amino groups was measured by using a Biacore (GE Healthcare Bio-Sciences AB) in the presence of various compounds serially diluted, where intelectin was used with a final concentration of 0.5 μg/mL, and 10 mM HEPES buffer (pH 7.0) containing 1 mM CaCl2), 150 mM NaCl, and 0.03% TWEEN® 20 (polyethylene glycol sorbitan monolaurate, polyoxyethylenesorbitan monolaurate) was used as buffer for measurement, and the binding rate of intelectin was determined for each sample as the degree of binding of intelectin measured for a sample without addition of compound was defined as a binding rate of 100%.

Data set [3] has as its system HEK-293T cells. The data set is described as follows: Cell proliferation after HEG1 siRNA, HEK-293T. It counts as cell-based. The note with it: which do not express HEG1.
Data set [4] has as its system NCI-H2452 cells. Nature of the data set: Cell proliferation after HEG1 knock-down, NCI-H2452. It counts as cell-based. The note with it: NCI-H2452, another mesothelioma cell line.

pIC50: −log10 of the molar value. “Also recorded” adds a separate entry of the source. Bounds are passed on as bounds.

recombinant human intelectin-1, sequence (Q8WWA0 19-298 V109D): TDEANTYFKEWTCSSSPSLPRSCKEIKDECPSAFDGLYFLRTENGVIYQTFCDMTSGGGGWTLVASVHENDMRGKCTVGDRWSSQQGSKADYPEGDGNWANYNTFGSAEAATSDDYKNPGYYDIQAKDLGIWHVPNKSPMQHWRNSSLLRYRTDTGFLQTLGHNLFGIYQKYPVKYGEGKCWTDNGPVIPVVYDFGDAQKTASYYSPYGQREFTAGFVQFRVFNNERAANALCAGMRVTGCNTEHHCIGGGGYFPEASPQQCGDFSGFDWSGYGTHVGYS

Take “7.6231: SEQ ID NO: 49 (SKSPSLVSLPTE) bonded to SLURPgpi (GGSKSPSLVSLPTEGG; 7.6231 - SLURPgpi (7.6231))”: the results for the “Binding to SKM9-2 antibody (positive/negative)” value in data set [1] and in data set [1] (listed as fragment 7.6231) were “positive” and “positive signal”, respectively. Further, in data set [1] (lysate treated with neuraminidase, listed as fragment 7.6231), the “Reaction with SKM9-2 antibody after neuraminidase treatment” value was “disappeared; also recorded: does not react”.

As for `CCC(O)CO` (stereo not shown) [1,2-Butanediol], the pIC50 (commonly the IC50 on a negative log10 scale, so that one unit is a factor of ten) in data set [2] is at least 3.00.

`CC(O)CO` (stereo not shown) [1,2-Propanediol]: the pIC50 in data set [2] was 3.05.

With `C[C@@H](O)CO` [(R)-1,2-Propanediol], the pIC50 in data set [2] is 3.00.

Regarding `O=C[C@H](O)[C@H](O)[C@H](O)CO` [D-Ribose], the pIC50 in data set [2] is at least 3.00.

In the case of `OCC(O)CO` [Glycerol], the pIC50 in data set [2] was at least 3.00.

Turning to `O=C1O[C@H]([C@@H](O)CO)C(O)=C1O` [L-Ascorbic acid], the pIC50 in data set [2] is at least 3.00.

Regarding `O=C[C@@H](O)[C@@H](O)[C@@H](O)CO` [L-Ribose], the pIC50 in data set [2] is at least 3.00.

As for `CCCC(=O)OCC(O)CO` (stereo not shown) [Monobutyrin], in data set [2], the pIC50 was 3.10.

For the compound “H2674: siRNA for human HEG1; sense SEQ ID NO: 25 CCUAUAGCCGUACAGACUACA, antisense SEQ ID NO: 26; called HEG1 siRNA in b178 (antisense UAGUCUGUACGGCUAUAGGGC; listed as RNA, chemistry not given here)”, the Cell proliferation result is reported as “not affected” in data set [3] and “suppressed cell proliferation” in data set [4].
